Measured values from patent publication US10766928B2, “Targeted conformationally-constrained kinked endosomal disrupting peptides” (priority 2012, dated 2020).
≈ marks a conversion by molar mass, not a printed value. Like-named read-outs stand apart in the source and are kept apart here. Non-standard residues stand in square brackets, D forms with d. Residues, ends and D or L forms follow the SMILES beside them. *: point of attachment. Pentanoyl(5-NH-cholesteryl) = CC(C)CCC[C@@H](C)[C@H]1CC[C@H]2[C@@H]3CC=C4C[C@@H](NCCCCC(=O)*)CC[C@]4(C)[C@H]3CC[C@]12C; Aib = CC(C)(N)C(=O)O; Ahx = NCCCCCC(=O)O; βAla = NCCC(=O)O

Legend:
[1] = test system: Jurkat lymphocytes; settings: 48 h
Protocol: (§1) The effects of the compounds of the invention on human Juikat leukemia cells were evaluated using flow cytometry-based assays of potency, efficacy, and toxicity. […] Analysis of flow cytometry data by non-linear regression was used to determine IC50 values for potency with the efficacy expressed as a percentage. […] Dose-dependent effects on cellular viability after 48 h at 37° C. in culture were also measured by flow cytometry.
(§2) The # represents the compound number in accordance with Tables A, B, and C. Concentrations of compound stock solutions were determined by absorbance measurements at 280 nm. Efficacy was determined as % change in cellular fluorescence relative to the maximal response of Compound 1, defined as 100%. Potencies and efficacies in Jurkat lymphocytes were measured by flow cytometry after treatment of cells with the compounds listed and the fluorescent probe Compound 2 (2.5 μM) for 14 hours. Toxicity to this cell line was determined by flow cytometry analysis of light scattering and counterstaining with PI after treatment for 48 h at 37° C. in culture. […] N.D., not determined.

[2] = test system: endosomes of Jurkat lymphocytes; test: Endosome disruption in Jurkat lymphocytes: release of carboxyfluorescein from disulfide probe Compound 2, flow cytometry; settings: for Efficacy (% of max. 1): % change in cellular fluorescence relative to maximal response of Compound 1 (100%); for Efficacy (% of max. 1) / Efficacy (% of 1): Jurkat; for Efficacy (% of 1): % of the effect of compound 1, calculated span of dose-response curve, ± standard deviation
Protocol: as §1, §2
Cells were treated with fluorescent molecular probe Compound 2 (2.5 μM) and endosome disruptors for 14 hours at 37° C. Enhanced cellular fluorescence resulting from release of the pH-sensitive fluorophore Compound 3 into the cytoplasm was quantified by flow cytometry.
Natural amino acids are represented by single letter codes. Codes for non-standard elements are as follows: Ch1: (3β-Cholest-5-en-3-yl-ammonio)pentanoyl; Ch2: (Cholester-3-yl)oxy-βAla-βAla; X: ε-Ahx; U: Aib; PB: Pacific Blue fluorophore. O: 3-(2-(2-(2-aminoethoxy)ethoxy)ethoxy)propanyl.

[3] = Thermodynamic solubility in PBS (pH 7.4); type: physicochemical; settings: phosphate buffered saline, pH 7.4, Table 3; PBS pH 7.4, 24 h at 22° C.; read-out: Solubility
From the text: Values in parentheses represent 95% confidence intervals. N.D., not determined.
Measurements represent duplicate or more replicates, with active peptides subjected to multiple replicates. ND: not determined. The peptide was non-toxic and soluble in cell culture medium at this concentration.

[4] = read-out: Potency, Table 2, EC50 ± standard deviation, Jurkat lymphocytes, disulfide-linked fluorescent probe (2.5 μM), 14 h

Molecule | IC50 [1] | EC50 ([2]; 14 h) | solubility thermodynamic at 24 h [3] | Endosome disruption activity (in words) ([2]; Jurkat endosome disruption assay) | Efficacy (% of max. 1) ([2]; Table 1, 14 hours) | Efficacy (% of 1) ([2]; Table 2, 14 h) | EC50 [2, 4] | EC50 ([2]; read-out: Potency (EC50), Table 1, Jurkat lymphocytes, probe Compound 2 (2.5 μM), 14 hours, 95% confidence interval in neighbouring cell)
CC(C)CCC[C@@H](C)[C@H]1CC[C@H]2[C@@H]3CC=C4C[C@@H](NCCCCC(=O)NCCC(=O)N[C@@H](CCC(=O)O)C(=O)N[C@@H](CCC(=O)O)C(=O)NCCCCCC(=O)NCCCCCC(=O)NC(C)(C)C(=O)NC(C)(C)C(=O)NC(C)(C)C(=O)NC(C)(C)C(=O)N[C@@H](Cc5ccc(O)cc5)C(=O)N[C@@H](Cc5ccc(O)cc5)C(=O)N[C@@H](Cc5ccc(O)cc5)C(=O)N[C@@H](Cc5ccc(O)cc5)C(=O)N[C@@H](Cc5ccc(O)cc5)C(=O)N5CCC[C@H]5C(=O)N5CCC[C@H]5C(=O)N[C@H](C(=O)N[C@@H](C)C(N)=O)C(C)C)CC[C@]4(C)[C@H]3CC[C@]12C [Compound 24, R = BEEXXUUUUYYYYYPPVA-CONH2] ({Pentanoyl(5-NH-cholesteryl)-βAla}-EE[Ahx][Ahx][Aib][Aib][Aib][Aib]YYYYYPPVA-NH2) | 5 µM | 0.09 µM | – | – | – | – | – | –
CC(C)[C@H](NC(=O)[C@@H](NC(=O)[C@H](C)NC(=O)[C@@H]1CCCN1C(=O)[C@H](Cc1c[nH]c2ccccc12)NC(=O)[C@H](Cc1ccc(O)cc1)NC(=O)[C@H](C)NC(=O)[C@H](Cc1c[nH]c2ccccc12)NC(=O)[C@H](Cc1c[nH]c2ccccc12)NC(=O)C(C)(C)NC(=O)C(C)(C)NC(=O)C(C)(C)NC(=O)C(C)(C)N)C(C)C)C(N)=O [Compound 50] (H-[Aib][Aib][Aib][Aib]WWAYWPAVV-NH2) | – | – | 22 ± 2 µM (≈ 33.4 µg/mL) | substantial activity | 71% | 54 ± 3% | 9 ± 3 µM | –
CC(C)[C@H](NC(=O)[C@H](C)NC(=O)[C@@H]1CCCN1C(=O)[C@@H]1CCCN1C(=O)[C@H](Cc1c[nH]c2ccccc12)NC(=O)[C@H](Cc1ccc(O)cc1)NC(=O)[C@H](C)NC(=O)[C@H](Cc1c[nH]c2ccccc12)NC(=O)[C@H](Cc1c[nH]c2ccccc12)NC(=O)C(C)(C)NC(=O)C(C)(C)NC(=O)C(C)(C)NC(=O)C(C)(C)N)C(N)=O [Compound 51] (H-[Aib][Aib][Aib][Aib]WWAYWPPAV-NH2) | – | – | 48 ± 3 µM (≈ 72.7 µg/mL) | – | <50% | – | > 15 µM | –
CC(C)[C@H](NC(=O)[C@@H](NC(=O)[C@@H]1CCCN1C(=O)[C@@H]1CCCN1C(=O)[C@H](C)NC(=O)[C@H](Cc1ccc(O)cc1)NC(=O)[C@H](C)NC(=O)[C@H](Cc1c[nH]c2ccccc12)NC(=O)[C@H](Cc1c[nH]c2ccccc12)NC(=O)C(C)(C)NC(=O)C(C)(C)NC(=O)C(C)(C)NC(=O)C(C)(C)N)C(C)C)C(N)=O [Compound 48] (H-[Aib][Aib][Aib][Aib]WWAYAPPVV-NH2) | – | – | 86 ± 5 µM (≈ 123 µg/mL) | – | <<50% | <10% | – | –
CC(C)[C@H](NC(=O)[C@@H](NC(=O)[C@@H]1CCCN1C(=O)[C@@H]1CCCN1C(=O)[C@H](Cc1c[nH]c2ccccc12)NC(=O)[C@H](Cc1ccc(O)cc1)NC(=O)[C@H](C)NC(=O)[C@H](C)NC(=O)[C@H](Cc1c[nH]c2ccccc12)NC(=O)C(C)(C)NC(=O)C(C)(C)NC(=O)C(C)(C)NC(=O)C(C)(C)N)C(C)C)C(N)=O [Compound 46] (H-[Aib][Aib][Aib][Aib]WAAYWPPVV-NH2) | – | – | 86 ± 5 µM (≈ 123 µg/mL) | – | <<50% | <10% | – | –
CC(C)[C@H](NC(=O)[C@@H](NC(=O)[C@@H]1CCCN1C(=O)[C@H](C)NC(=O)[C@H](Cc1c[nH]c2ccccc12)NC(=O)[C@H](Cc1ccc(O)cc1)NC(=O)[C@H](C)NC(=O)[C@H](Cc1c[nH]c2ccccc12)NC(=O)[C@H](Cc1c[nH]c2ccccc12)NC(=O)C(C)(C)NC(=O)C(C)(C)NC(=O)C(C)(C)NC(=O)C(C)(C)N)C(C)C)C(N)=O [Compound 49] (H-[Aib][Aib][Aib][Aib]WWAYWAPVV-NH2) | – | – | 21 ± 2 µM (≈ 31.9 µg/mL) | – | 45% | 35 ± 2% | – | 12 µM
Ac-AAAWWAYWPPVA-NH2 [Compound 40] | – | – | 41 ± 2 µM | – | <<50% | – | > 15 µM | –
